Measurements from PubChem BioAssay (NCI).
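How tested: cells in 96-well plates exposed to compound for 48 hours at five concentrations. TGI: total growth inhibition.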 *1 amine or outer side, *2 acyl side, *3 side chain or, on linkers, in order; H or OH if unused. Where a SMILES comes first, the peptide text is derived from it. Bridges are numbered along the chain shown (N, C = ends). Roman numbers before positions name the chains, in order. [ ]: non-standard residue; d: D form. Actinocin(9to1) = Cc1c2oc3c(C)ccc(C(=O)[*:1])c3nc-2c(C(=O)[*:2])c(N)c1=O; NMeV = CN[CH](C(=O)O)C(C)C; Sar = CNCC(=O)O

Key:
Assay in all cases: NCI tumour cell line growth inhibition, 48 h
[1] = tested on: SNB-19 CNS
[2] = tested on: PC-3 prostate
[3] = tested on: K-562 leukemia
[4] = tested on: MOLT-4 leukemia
[5] = tested on: SW-620 colon
[6] = tested on: SN12C renal
[7] = tested on: DU-145 prostate
[8] = tested on: HCC-2998 colon
[9] = tested on: NCI-H226 lung
[10] = tested on: MDA-N
[11] = tested on: OVCAR-4 ovarian

Row | Compound | TGI [1] [µM] | TGI [2] [µM] | TGI [3] [µM] | TGI [4] [µM] | TGI [5] [µM] | TGI [6] [µM] | TGI [7] [µM] | TGI [8] [µM] | TGI [9] [µM] | TGI [10] [µM] | TGI [11] [µM]
1 | COC(=O)NC(Nc1ccc(C)cc1)(C(F)(F)F)C(F)(F)F | > 100 | > 100 | > 100 | > 100 | > 100 | > 100 | > 100 | > 100 | > 100 | > 100 | –
2 | OCC1c2ccccc2-n2nc(-c3ccccc3)c(O)c21 (centres undefined) | > 100 | 34.3 | 53 | > 100 | 67.3 | 36.8 | > 100 | 44.8 | > 100 | > 100 | > 100
3 | CCC(=O)Nc1ccc(N2C(=O)/C(=C/c3ccc(O)c(OC)c3)N=C2c2ccccc2)cc1 | > 100 | 60.8 | > 100 | > 100 | > 100 | > 100 | > 100 | > 100 | 50.5 | > 100 | > 100
4 | O=C1Sc2cc3ccccc3cc2C(=O)Sc2cc3ccccc3cc21 | > 100 | > 100 | > 100 | 76.8 | > 100 | 75.7 | > 100 | 58.7 | > 100 | > 100 | 69.5
5 | CC(=O)c1cc(S(=O)(=O)c2ccc(O)c(C(C)=O)c2)ccc1O | > 100 | > 100 | > 100 | > 100 | > 100 | > 100 | > 100 | > 100 | > 100 | > 100 | > 100
6 | O=C1/C(=C/c2cccs2)N=C(c2ccccc2)N1c1nc2ccccc2s1 | > 100 | > 100 | > 100 | > 100 | > 100 | > 100 | > 100 | > 100 | > 100 | > 100 | –
7 | Cc1ccc(C(=O)NN=C(/N=N/c2cccc(C)c2)c2ccc(N(C)C)cc2)cc1 | > 100 | > 100 | > 100 | > 100 | > 100 | > 100 | > 100 | > 100 | > 100 | > 100 | > 100
8 | O=C1c2ccccc2C2(c3ccc(Cl)cc3)N[C@@H]3CCCC[C@@H]3N12 (some centres undefined) | > 100 | > 100 | > 100 | > 100 | > 100 | > 100 | > 100 | > 100 | > 100 | > 100 | > 100
9 | O=C1/C(=C(/Br)I)c2ccccc2-c2ccccc21 | 27 | 23.7 | 7.24 | 6.27 | 8.12 | 33.7 | 30 | 11.4 | 35.4 | 9.78 | 32.3
10 | CC(=O)NCC1OC2COC(c3ccccc3)OC2C2N=C(c3ccccc3)OC12 (centres undefined) | > 100 | > 100 | > 100 | > 100 | > 100 | > 100 | > 100 | > 100 | > 100 | > 100 | > 100
11 | Cc1c2oc3c(C)ccc(C(=O)NC4C(=O)NC(Cc5ccc(O)cc5)C(=O)N5CCCC5C(=O)N(C)CC(=O)N(C)C(C(C)C)C(=O)OC4C)c3nc-2c(C(=O)NC2C(=O)NC(Cc3ccc(O)cc3)C(=O)N3CCCC3C(=O)N(C)CC(=O)N(C)C(C(C)C)C(=O)OC2C)c(N)c1=O (centres undefined) (I: TYP[Sar][NMeV] / II: TYP[Sar][NMeV]; ester I:1-I:C, II:1-II:C; linker I:N-II:N via Actinocin(9to1); configuration not given here) | > 56.1 | > 100 | > 100 | – | > 100 | > 100 | > 72.7 | > 100 | > 100 | > 100 | > 42.1
12 | CN1C(=O)C(CCO)(C(C)(C)C)c2ccccc21 (centres undefined) | > 100 | > 100 | > 100 | > 100 | > 100 | > 100 | > 100 | > 100 | > 100 | > 100 | > 100
13 | CCOC(=O)NC(OCc1ccccc1)(C(=O)OC)C(F)(F)F (centres undefined) | > 100 | > 100 | > 100 | > 100 | > 100 | > 100 | > 100 | > 100 | – | > 100 | > 100
14 | CCCCNC(=S)Nc1nc(C(=O)NNC(=S)NCc2ccccc2)cs1 | – | > 100 | > 100 | > 100 | > 100 | > 100 | > 100 | > 100 | > 100 | > 100 | > 100
